Assay results taken from patent US5585277A, “Screening method for identifying ligands for target proteins” (Scriptgen Pharmaceuticals, Inc., priority 1995, dated 1996).

Assays:
[1] = system: Dihydrofolate Reductase (DHFR); test: Protection of DHFR from proteolytic digestion by Proteinase K, undigested DHFR quantified by ELISA; type: binding; details: same methods as Example 1, separate experiments, 54° C., 5 minutes
Protocol: (§1) Samples were removed and undigested DHFR was quantified by ELISA as follows:
(§2) (a) Protease incubations were diluted 50 fold with Tris-buffered saline (TBS);
(§3) (b) 50 μl diluted samples were transferred to the wells of an ELISA plate and incubated 60 minutes at room temperature;
(§4) (e) plate wells were washed as in (c) above;
(§5) (g) plate wells were washed as in (c); and […]

[2] = system: Dihydrofolate Reductase (DHFR); test: Protection of DHFR from Proteinase K digestion in the presence of a mixture of all 20 common amino acids, ELISA; type: binding; details: 10^-5M ligand, 10^-5M of all 20 common amino acids, DHFR 2.1 μg/ml, Proteinase K 80 μg/ml, 54° C., 5 minutes
Protocol: The following were combined and incubated at 54° C. for 5 minutes: DHFR (2.1 μg/ml), Proteinase K (80μg/ml), 0.1M Tris-HCl [pH 7.5], 10^-5M of all 20 common amino acids and either 0 or 10^-5M ligand.
as §1, §2, §3, §4, §5

Structure (SMILES): NC(=O)C1=CN([C@@H]2O[C@H](COP(=O)(O)OP(=O)(O)OC[C@H]3O[C@@H](n4cnc5c(N)ncnc54)[C@H](OP(=O)(O)O)[C@@H]3O)[C@@H](O)[C@H]2O)C=CC1 [NADPH]
- concentration at which ligand inhibits proteolysis of DHFR [1]: ≥ 10^-5
- protection of DHFR from digestion relative to the absence of ligands [2]: Protects Dihydrofolate Reductase (DHFR) From Proteolytic Digestion
